Measured values published in patent US8901118B2, “Compounds and methods for kinase modulation, and indications therefor” (Plexxikon Inc., priority 2010, dated 2014).

Assays:
CYP1A2 = target: T1, CYP1A2 (Homo sapiens, UniProt P05177); test: CYP1A2 inhibition (fluorescent substrate CEC); format: in vitro ADME; conditions: read-out: Cyp IC50 1A2
T1 sequence (P05177 1-516): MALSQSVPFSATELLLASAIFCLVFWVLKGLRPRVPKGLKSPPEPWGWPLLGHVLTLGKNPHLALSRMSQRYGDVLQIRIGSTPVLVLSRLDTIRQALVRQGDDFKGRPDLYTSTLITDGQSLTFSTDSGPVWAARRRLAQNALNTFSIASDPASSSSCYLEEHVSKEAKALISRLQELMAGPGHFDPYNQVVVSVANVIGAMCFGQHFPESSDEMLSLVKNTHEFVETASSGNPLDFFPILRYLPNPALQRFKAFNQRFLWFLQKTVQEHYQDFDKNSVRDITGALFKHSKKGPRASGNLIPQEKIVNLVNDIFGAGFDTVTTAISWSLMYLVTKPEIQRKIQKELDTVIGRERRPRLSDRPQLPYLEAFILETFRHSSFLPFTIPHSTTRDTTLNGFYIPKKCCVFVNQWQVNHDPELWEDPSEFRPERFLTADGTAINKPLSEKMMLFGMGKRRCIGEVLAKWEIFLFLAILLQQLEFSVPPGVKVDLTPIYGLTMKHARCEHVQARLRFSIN
Outline: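 Test compounds, 10-point 1:1 serial dilutions in NADPH-regenerating cofactor mix, were preincubated 10 min at 37° C before recombinant enzyme and fluorogenic substrate reactions at 37° C (CYP1A2 15 min; CYP2C9 45 min; CYP2C19, 2D6 30 min). Product fluorescence was read at 409 ex with 460 em (1A2, 2C19) or 530 em (2C9, 2D6), and IC50 fitted from signal versus concentration.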

Flt-3 kinase = target: T2, Flt-3 kinase (Homo sapiens, UniProt P36888); test: Flt-3 kinase biochemical activity assay (AlphaScreen); conditions: 100 μM ATP; read-out: Biochemical Inhibition IC50 Flt3
T2 sequence (P36888 27-993): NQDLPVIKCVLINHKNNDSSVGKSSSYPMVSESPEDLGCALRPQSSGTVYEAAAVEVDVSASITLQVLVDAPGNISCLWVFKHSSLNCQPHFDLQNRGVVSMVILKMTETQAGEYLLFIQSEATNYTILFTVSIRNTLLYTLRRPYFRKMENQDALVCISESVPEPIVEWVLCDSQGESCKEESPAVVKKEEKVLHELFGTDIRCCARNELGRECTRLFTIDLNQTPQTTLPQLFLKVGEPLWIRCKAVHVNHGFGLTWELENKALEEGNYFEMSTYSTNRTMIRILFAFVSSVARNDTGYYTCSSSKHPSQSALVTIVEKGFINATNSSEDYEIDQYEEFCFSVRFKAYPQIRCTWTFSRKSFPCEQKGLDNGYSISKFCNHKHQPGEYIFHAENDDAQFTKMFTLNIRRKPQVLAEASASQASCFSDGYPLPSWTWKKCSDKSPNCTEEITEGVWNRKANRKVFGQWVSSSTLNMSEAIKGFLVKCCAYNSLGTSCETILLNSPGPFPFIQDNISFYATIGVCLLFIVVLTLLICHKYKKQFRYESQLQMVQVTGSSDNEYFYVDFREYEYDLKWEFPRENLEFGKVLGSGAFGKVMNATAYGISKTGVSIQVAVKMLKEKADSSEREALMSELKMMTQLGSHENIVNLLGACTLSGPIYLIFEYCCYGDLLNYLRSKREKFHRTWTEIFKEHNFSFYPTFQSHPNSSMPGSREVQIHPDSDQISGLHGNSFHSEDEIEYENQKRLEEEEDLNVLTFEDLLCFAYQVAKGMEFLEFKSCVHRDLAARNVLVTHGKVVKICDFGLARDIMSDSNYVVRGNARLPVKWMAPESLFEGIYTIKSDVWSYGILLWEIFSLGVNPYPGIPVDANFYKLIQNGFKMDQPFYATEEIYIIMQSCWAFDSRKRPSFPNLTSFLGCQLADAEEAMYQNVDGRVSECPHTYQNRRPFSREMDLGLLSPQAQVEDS
Outline: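 Recombinant kinase (1 ng/well) phosphorylated 30 nM biotin-(E4Y)10 with 100 μM ATP in Hepes pH 7.5 buffer with Mg/Mn, 5% DMSO, for 1 h at room temperature. EDTA-containing AlphaScreen streptavidin donor/PY20 acceptor beads detected phosphotyrosine; IC50 was derived from signal versus concentration.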

IC50 (CYP1A2) [µM]	IC50 (Flt-3 kinase) [µM]	SMILES
> 10	< 0.1	CCOc1ccc(Nc2ccc(Cc3c[nH]c4ncnc(OCCOC)c34)c(F)n2)cn1 [Compound P-4008, (6-Ethoxy-pyridin-3-yl)-{6-fluoro-5-[4-(2-methoxy-ethoxy)-7H-pyrrolo[2,3-d]pyrimidin-5-ylmethyl]-pyridin-2-yl}-amine]
> 10	< 0.1	CCc1ccc(Nc2ccc(Cc3c[nH]c4ncnc(C)c34)c(F)n2)cn1 [Compound P-4009, (6-Ethyl-pyridin-3-yl)-[6-fluoro-5-(4-methyl-7H-pyrrolo[2,3-d]pyrimidin-5-ylmethyl)-pyridin-2-yl]-amine]
> 10	< 1	COc1ncnc2[nH]cc(Cc3ccc(Nc4ccc(C)nc4)nc3F)c12 [Compound P-4010, [6-Fluoro-5-(4-methoxy-7H-pyrrolo[2,3-d]pyrimidin-5-ylmethyl)-pyridin-2-yl]-(6-methyl-pyridin-3-yl)-amine]
> 10	< 1	CCn1cc(Nc2ccc(Cc3c[nH]c4ncnc(OC)c34)c(F)n2)cn1 [Compound P-4011, (1-Ethyl-1H-pyrazol-4-yl)-[6-fluoro-5-(4-methoxy-7H-pyrrolo[2,3-d]pyrimidin-5-ylmethyl)-pyridin-2-yl]-amine]
> 10	< 1	CCOc1ncnc2[nH]cc(Cc3ccc(Nc4cnn(CC)c4)nc3F)c12 [Compound P-4012, [5-(4-Ethoxy-7H-pyrrolo[2,3-d]pyrimidin-5-ylmethyl)-6-fluoro-pyridin-2-yl]-(1-ethyl-1H-pyrazol-4-yl)-amine]
> 10	> 1	CCn1cc(Nc2ccc(Cc3c[nH]c4ncnc(C)c34)c(F)n2)cn1 [Compound P-4013, (1-Ethyl-1H-pyrazol-4-yl)-[6-fluoro-5-(4-methyl-7H-pyrrolo[2,3-d]pyrimidin-5-ylmethyl)-pyridin-2-yl]-amine]
> 10	< 1	CCn1cc(Nc2ccc(Cc3c[nH]c4ncnc(OCCOC)c34)c(F)n2)cn1 [Compound P-4014, (1-Ethyl-1H-pyrazol-4-yl)-{6-fluoro-5-[4-(2-methoxy-ethoxy)-7H-pyrrolo[2,3-d]pyrimidin-5-ylmethyl]-pyridin-2-yl}-amine]
> 10	> 1	COCCOc1ncnc2[nH]cc(Cc3ccc(Nc4ccc(C)nc4)nc3F)c12 [Compound P-4015, {6-Fluoro-5-[4-(2-methoxy-ethoxy)-7H-pyrrolo[2,3-d]pyrimidin-5-ylmethyl]-pyridin-2-yl}-(6-methyl-pyridin-3-yl)-amine]
> 10	< 0.01	CCc1ccc(Nc2ccc(Cc3c[nH]c4ncnc(OCCOC)c34)c(F)n2)cn1 [Compound P-4016, (6-Ethyl-pyridin-3-yl)-{6-fluoro-5-[4-(2-methoxy-ethoxy)-7H-pyrrolo[2,3-d]pyrimidin-5-ylmethyl]-pyridin-2-yl}-amine]
> 10	< 0.1	CCOc1ncnc2[nH]cc(Cc3ccc(Nc4ccc(C)nc4)nc3F)c12 [Compound P-4017, [5-(4-Ethoxy-7H-pyrrolo[2,3-d]pyrimidin-5-ylmethyl)-6-fluoro-pyridin-2-yl]-(6-methyl-pyridin-3-yl)-amine]
> 10	< 0.1	CCOc1ncnc2[nH]cc(Cc3ccc(Nc4ccc(OC)nc4)nc3F)c12 [Compound P-4018, [5-(4-Ethoxy-7H-pyrrolo[2,3-d]pyrimidin-5-ylmethyl)-6-fluoro-pyridin-2-yl]-(6-methoxy-pyridin-3-yl)-amine]
> 10	< 0.1	COCCOc1ncnc2[nH]cc(Cc3ccc(Nc4ccc(OC)nc4)nc3F)c12 [Compound P-4019, {6-Fluoro-5-[4-(2-methoxy-ethoxy)-7H-pyrrolo[2,3-d]pyrimidin-5-ylmethyl]-pyridin-2-yl}-(6-methoxy-pyridin-3-yl)-amine]
> 10	< 0.1	COc1ccc(Nc2ccc(C(=O)c3c[nH]c4ncnc(C5CC5)c34)c(F)n2)cn1 [Compound P-4022, (4-cyclopropyl-7H-pyrrolo[2,3-d]pyrimidin-5-yl)-[2-fluoro-6-(6-methoxy-pyridin-3-ylamino)-pyridin-3-yl]-methanone]
> 10	< 1	COc1ccc(Nc2ccc(Cc3c[nH]c4ncnc(C5CC5)c34)c(F)n2)cn1 [Compound P-4023, [5-(4-cyclopropyl-7H-pyrrolo[2,3-d]pyrimidin-5-ylmethyl)-6-fluoro-pyridin-2-yl]-(6-methoxy-pyridin-3-yl)-amine]
> 10	< 0.1	CCOc1ccc(Nc2ccc(C(=O)c3c[nH]c4ncnc(OC)c34)c(F)n2)cn1 [Compound P-4024, [6-(6-Ethoxy-pyridin-3-ylamino)-2-fluoro-pyridin-3-yl]-(4-methoxy-7H-pyrrolo[2,3-d]pyrimidin-5-yl)-methanone]
> 10	< 1	CCOc1ncnc2[nH]cc(C(=O)c3ccc(Nc4ccc(OC)nc4)nc3F)c12 [Compound P-4025, (4-Ethoxy-7H-pyrrolo[2,3-d]pyrimidin-5-yl)-[2-fluoro-6-(6-methoxy-pyridin-3-ylamino)-pyridin-3-yl]-methanone]
> 10	< 0.1	CCc1ccc(Nc2ccc(Cc3c[nH]c4ncnc(C5CC5)c34)c(F)n2)cn1 [Compound P-4028, [5-(4-Cyclopropyl-7H-pyrrolo[2,3-d]pyrimidin-5-ylmethyl)-6-fluoro-pyridin-2-yl]-(6-ethyl-pyridin-3-yl)-amine]
> 10	< 0.01	CCc1ccc(Nc2ccc(C(=O)c3c[nH]c4ncnc(C5CC5)c34)c(F)n2)cn1 [Compound P-4029, (4-Cyclopropyl-7H-pyrrolo[2,3-d]pyrimidin-5-yl)-[6-(6-ethyl-pyridin-3-ylamino)-2-fluoro-pyridin-3-yl]-methanone]
> 10	< 1	Cc1ccc(Nc2ccc(Cc3c[nH]c4ncnc(C5CC5)c34)c(F)n2)cn1 [Compound P-4030, [5-(4-Cyclopropyl-7H-pyrrolo[2,3-d]pyrimidin-5-ylmethyl)-6-fluoro-pyridin-2-yl]-(6-methyl-pyridin-3-yl)-amine]
> 10	< 0.1	Cc1ccc(Nc2ccc(C(=O)c3c[nH]c4ncnc(C5CC5)c34)c(F)n2)cn1 [Compound P-4031, (4-Cyclopropyl-7H-pyrrolo[2,3-d]pyrimidin-5-yl)-[2-fluoro-6-(6-methyl-pyridin-3-ylamino)-pyridin-3-yl]-methanone]
5 to 10	> 1	CCn1cc(Nc2ccc(Cc3c[nH]c4ncnc(C5CC5)c34)c(F)n2)cn1 [Compound P-4036, [5-(4-Cyclopropyl-7H-pyrrolo[2,3-d]pyrimidin-5-ylmethyl)-6-fluoro-pyridin-2-yl]-(1-ethyl-1H-pyrazol-4-yl)-amine]
> 10	< 1	CCn1cc(Nc2ccc(C(=O)c3c[nH]c4ncnc(C5CC5)c34)c(F)n2)cn1 [Compound P-4037, (4-Cyclopropyl-7H-pyrrolo[2,3-d]pyrimidin-5-yl)-[6-(1-ethyl-1H-pyrazol-4-ylamino)-2-fluoro-pyridin-3-yl]-methanone]
